Laboratory results from patent US11826426B2, “Nanoscale metal-organic layers and metal-organic nanoplates for x-ray induced photodynamic therapy, radiotherapy, radiodynamic therapy, chemotherapy, immunotherapy, and any combination thereof” (priority 2017, dated 2023).

Legend:
Assay type in all cases: cell-based, murine
CT26 cells [1] = experiment: Annexin V/dead cell apoptosis kit, flow cytometry, CT26; settings: 48 h
Description: (§1) The in vitro anticancer efficacy of Hf12-DBP and Hf12-DBP-Pt were further evaluated on CT26 and MC38 cells. Cells were cultured in a 6-well plate overnight and incubated with particles at a Hf concentration of 20 μM for 4 h followed by irradiation with 0 or 2 Gy X-ray (250 kVp, 15 mA, 1 mm Cu filter). 48 h later, the cells were stained according to the AlexaFluor 488 Annexin V/dead cell apoptosis kit (Life Technologies, Carlsbad, California United States of America) and quantified by flow cytometry.
as §1, with “POM, Hf6-QPDC-Ir, Hf12-QPDC-Ir” for “Hf12-DBP”, “POM@Hf12-QPDC-Ir” for “Hf12-DBP-Pt”, “were” for “were further”, “μM or equivalent W concentration” for “μM”, “California,” for “California”

MC38 cells = experiment: Annexin V/dead cell apoptosis kit, flow cytometry, MC38; settings: 48 h
Description: as §1
as §1, with “POM, Hf6-QPDC-Ir, Hf12-QPDC-Ir” for “Hf12-DBP”, “POM@Hf12-QPDC-Ir” for “Hf12-DBP-Pt”, “were” for “were further”, “μM or equivalent W concentration” for “μM”, “California,” for “California”, “cytometry. […]” for “cytometry.”

COX-2 = COX-2 assay (cell membrane damage by RDT); settings: CT26, 10 μM 4 h; for COX-2 mean fluorescence intensities (flow cytometry): with X-ray irradiation
Description: Thus, the cell membrane damage caused by RDT upon X-ray irradiation was investigated by COX-2 assay (BD Bioscience, Franklin Lakes, New Jersey, United States of America) in CT26 cells. Cells were seeded on cover slides in 6-well plates and cultured for 12 h then incubated with Hf12-DBP, Hf12-DBP-Pt, H2DBP-Pt or PBS at a Hf concentration of 10 μM or ligand with concentration of 10 μM for 4 h followed by X-ray irradiation (250 kVp, 15 mA, mm Cu filter) at 0 and 2 Gy dose. Cells were fixed with 4% paraformaldehyde immediately after X-ray or light irradiation. Biotin-conjugated anti-COX-2 antibody with concentration of 10 μg/mL were incubated with cells at 4° C. overnight then followed by incubation with Cy3-conjugated streptavidin. The nuclei were stained with DAPI. […] The cells were imaged with CLSM and quantified by flow cytometry.
To further study the stronger RDT effect from the Hf12-DBP-Pt treated group, flow cytometry was performed to quantify the difference of COX-2 upregulation of cells treated with Hf12-DBP-Pt, Hf12-DBP, H2DBP-Pt or H2DBP. The mean fluorescence intensities were 7441, 1804, 821, and 225 for the t cells treated with Hf12-DBP-Pt, Hf12-DBP, H2DBP-Pt and H2DBP with X-ray irradiation, respectively.

CT26 cells [2] = experiment: Intracellular singlet oxygen generation (SOSG, CLSM), Example 1; settings: 20 μM based on Ir, Ru or BPY, 8 h, X-ray 2 Gy
Description: ^1O2 generation in live cells was detected by Singlet Oxygen Sensor Green (SOSG, Life Technology, USA). CT26 cells were seeded in a 3.5-cm petri dish and cultured for 12 h. The culture medium was then replaced with fresh medium containing 1 μM SOSG to preload the cells with SOSG. After incubating for 30 min, the cells were washed by PBS three times to remove excess SOSG. The cells were incubated in PBS, with Hf-MOLs or ligands at a ligand concentration of 20 μM for 8 h, then washed with PBS three times to remove excess MOLs or ligands. X-ray irradiation was applied to cells at a dose of 2 Gy (250 kVp, 15 mA, 1-mm Cu filter). Confocal laser scanning microscopy (CLSM; FV1000 Laser Scanning Confocal Microscope, Olympus Corporation, Tokyo, Japan) was used to visualize the ^1O2 generated in the live cells by detecting the green fluorescence inside the cells.
The mechanism of X-ray induced cytotoxicity on CT26 cells was explored. ^1O2 generation in live cells was examined by Singlet Oxygen Sensor Green (SOSG) and detected by confocal laser scanning microscopy (CLSM). After preloading cells with SOSG and incubating them with PBS, Hf-MOLs, or H3BPY ligand for 8 h at a concentration of 20 μM based on Ir, Ru, or BPY, respectively, they were irradiated with X-rays at a dose of 2 Gy, immediately followed by CLSM imaging.

[3] = Table 10, 0 Gy (dark), Hf 20 μM or equivalent W 4 h
[4] = Table 10, 2 Gy X-ray, Hf 20 μM or equivalent W 4 h
[5] = Table 11, 0 Gy (dark), Hf 20 μM or equivalent W 4 h
[6] = Table 11, 2 Gy X-ray, Hf 20 μM or equivalent W 4 h
[7] = Table 8, 0 Gy (dark), Hf 20 μM 4 h
[8] = Table 8, 2 Gy X-ray, Hf 20 μM 4 h
[9] = Table 9, 0 Gy (dark), Hf 20 μM 4 h
[10] = Table 9, 2 Gy X-ray, Hf 20 μM 4 h

Q: Which results are given for [P2W18O62]^6− [POM, reference compound]?
A: Early apoptosis (CT26 cells [1]; [3]): 0.051%; Healthy cells (CT26 cells [1]; [3]): 99.7%; Late apoptosis (CT26 cells [1]; [3]): 0.0057%; Necrosis (CT26 cells [1]; [3]): 0.21%; Early apoptosis (CT26 cells [1]; [4]): 5.71%; Healthy cells (CT26 cells [1]; [4]): 83.1%; Late apoptosis (CT26 cells [1]; [4]): 8.14%; Necrosis (CT26 cells [1]; [4]): 3.05%; Early apoptosis (MC38 cells; [5]): 0.44%; Healthy cells (MC38 cells; [5]): 97.3%; Late apoptosis (MC38 cells; [5]): 0.86%; Necrosis (MC38 cells; [5]): 1.53%; Early apoptosis (MC38 cells; [6]): 2.35%; Healthy cells (MC38 cells; [6]): 70.9%; Late apoptosis (MC38 cells; [6]): 14.0%; Necrosis (MC38 cells; [6]): 12.7%

Q: How did the Early apoptosis (CT26 cells [1]; [7]) turn out when `O=C(O)c1ccc(-c2c3nc(cc4ccc([n-]4)c(-c4ccc(C(=O)O)cc4)c4nc(cc5ccc2[n-]5)C=C4)C=C3)cc1.[Pt+2]` [H2DBP-Pt, platinum-complexed 5, 15-di(p-benzoato)porphyrin] was run?
A: 0.66%

Q: And the Healthy cells (CT26 cells [1]; [7])?
A: 88.2%

Q: And the Late apoptosis (CT26 cells [1]; [7])?
A: 4.86%

Q: And the Necrosis (CT26 cells [1]; [7])?
A: 6.26%

Q: What about the Early apoptosis (CT26 cells [1]; [8]) of the same compound?
A: 0.73%

Q: And the Healthy cells (CT26 cells [1]; [8])?
A: 69.3%

Q: What about the Late apoptosis (CT26 cells [1]; [8]) of the same compound?
A: 8.45%

Q: What about the Necrosis (CT26 cells [1]; [8]) of the same compound?
A: 21.5%

Q: What about the Early apoptosis (MC38 cells; [9]) of the same compound?
A: 3.99%

Q: And the Healthy cells (MC38 cells; [9])?
A: 93.9%

Q: What about the Late apoptosis (MC38 cells; [9]) of the same compound?
A: 1.90%

Q: What about the Necrosis (MC38 cells; [9]) of the same compound?
A: 3.18%

Q: And the Early apoptosis (MC38 cells; [10])?
A: 15.9%

Q: What about the Healthy cells (MC38 cells; [10]) of the same compound?
A: 78.2%

Q: What about the Late apoptosis (MC38 cells; [10]) of the same compound?
A: 5.31%

Q: And the Necrosis (MC38 cells; [10])?
A: 0.55%

Q: What about the “COX-2 mean fluorescence intensities (flow cytometry)” value (COX-2) of the same compound?
A: 821

Q: And the “COX-2 upregulation by CLSM” value (COX-2; with X-ray irradiation (2 Gy))?
A: No fluorescence signal

Q: And the “COX-2 upregulation by CLSM” value (COX-2; without X-ray irradiation)?
A: No fluorescence signal

Q: How did the “COX-2 mean fluorescence intensities (flow cytometry)” value (COX-2) turn out when `O=C(O)c1ccc(-c2c3nc(cc4ccc([nH]4)c(-c4ccc(C(=O)O)cc4)c4nc(cc5ccc2[nH]5)C=C4)C=C3)cc1` [H2DBP, 5,15-di(p-benzoato)porphyrin] was run?
A: 225

Q: How did the “SOSG fluorescence (^1O2 in live cells)” value (CT26 cells [2]) turn out when `O=C(O)c1ccc(-c2cc(-c3ccc(C(=O)O)cc3)nc(-c3cc(C(=O)O)ccn3)c2)cc1` [H3BPY, 4′,6′-dibenzoato-[2,2′-bipyridine]-4-carboxylic acid] was run?
A: no SOSG signal
